Measurements taken from PMC8910920 (International Journal of Molecular Sciences, 2022).
Like-named read-outs stand apart in the source and are kept apart here.

What was measured:
[1] = tested on: OXA-induced cold hypersensitivity in male mice; set-up: method as in PMID 32843690; conditions: ref [31]; cited from earlier work
rTRPM8 [2] = target: T1, rTRPM8 (Rattus norvegicus, UniProt Q8R455); assay: Ca2+ microfluorography assay, HEK293 cells expressing rTRPM8, menthol activation; type: cell-based; conditions: HEK293-rTRPM8, 100 μM menthol
T1 construct: expressed in transfected cells
Experimental: This represents a similar activity as β–lactam 2 and a somewhat higher potency than the model TRPM8 antagonists AMTB.
To measure the effect of the compounds against TRPM8 activity we used microfluorometry-based calcium flux assays with Fluo-4 NW Ca^2+ dye and fluorescence as described in [30]. Briefly, human embryonic kidney cell line (HEK293) cells stably transfected with rTRPM8 or hTRPM8 were seeded in 96-well plates at a cell density of 30,000 cells. After 2 days the medium was replaced with 100 μL of the dye, Fluo-4 NW, loading solution supplemented with probenecid 2.5 mM and incubated 1 h at 37 °C. The TRPM8 activity was measured using POLASTAR plate reader (BMG Labtech) setting the excitation wavelength at 485 nm and the emission wavelength at 520 nm. The baseline fluorescence was recorded for 3 cycles before the addition of vehicle compound at different concentrations and the antagonist, 10 μM AMTB. Fluorescence intensity was recorded during 7 more cycles and 100 μM menthol was added. Fluorescence intensity was recorded during 10 more cycles.
Data analysis: The Z-factor was calculated in each assay using the following equation: […]. In all the experiments, the Z-factor was ≥0.5. The effect of the compounds against TRPM8 activity was determined by normalizing their effect on the maximum fluorescence observed after application of 100 μM menthol. Decrease in menthol signal was expressed as percentage of inhibition (%). All data are expressed as the mean ± standard deviation (SD). Data are expressed as the concentration exerting a half-maximal inhibition of agonist-induced [Ca^2+]i elevation (IC50), which was calculated again using GraphPad Prism® software. All determinations were performed in triplicate (n = 3) in 3 independent experiments (N = 3).

rTRPM8 [3] = target: T1, rTRPM8; assay: Whole-cell patch-clamp, HEK293-rTRPM8 cells; type: cell-based; conditions: HEK293-rTRPM8, 100 μM menthol, holding voltage −60 mV
Experimental: To confirm the antagonistic activity, electrophysiology (patch-clamp) studies were performed on HEK293 cells expressing the rTRPM8 channel. […] Then, using a holding voltage of −60 mV, different concentrations of RGM8-51 were used to establish the concentration/response curve for rTRPM8 current blockade.
Whole-cell patch-clamp recordings from HEK293-rTRPM8 cells were carried out 2 days after seeding on 12 mm Ø glass coverslips treated with poly-L-lysine solution (Sigma Aldrich, Spain); the intracellular pipette solution contained (in mM) 150 NaCl, 5 EGTA, 3 MgCl2 and 10 HEPES, adjusted to pH 7.2 with NaOH, and the extracellular solution contained (in mM) 150 NaCl, 6 CsCl, 1.5 CaCl2, 1 MgCl2, 10 D-glucose and 10 HEPES, adjusted to pH 7.4 with NaOH. The TRPM8 activity was measured by the application of two pulses of 100 μM menthol in a time interval of 2 min and a 30 s perfusion of the different compound concentrations before the second menthol pulse.
Data were sampled at 10 kHz (EPC10 amplifier with PatchMaster 2.53 software, HEKA Electronics, Lambrecht, Germany) and low-pass filtered at 3 kHz for analysis (PatchMaster 2.53 and GraphPad Prism 6.0, Graphpad Software, San Diego, CA, USA). The series resistance was <10 MΩ and to minimize voltage errors was compensated by 60–80%. […] Cell capacitance was measured and used to estimate the current density (J, pA/pF).
Data analysis: For the whole-cell patch-clamp experiments, results are expressed as the percentage of remaining activation of the TRPM8 channel. This is calculated by normalizing the ratio (p2/p1) of testing conditions to the ratio (p2/p1) of the control condition. […] All data are expressed as the mean ± standard error of the mean (SEM) (n = 5–8). In the current-clamp experiments, the change in membrane potential is expressed as the difference between the resting membrane potential and the membrane potential after the addition of a stimuli. Data were analyzed as previously described (GraphPad 6.0, one-way ANOVA followed by Bonferroni multiple comparisons test, and ROUT method, Q = 10%).

CACO-2 cell monolayers = assay: Caco-2 permeability; type: in vitro ADME; conditions: CACO-2 cell monolayer
Experimental: These studies were subcontracted to Eurofins-CEREP or Eurofins-PANLABS. Briefly, agonists and antagonist assays were performed in cell cultures overexpressing the corresponding channel (CHO: TRPV1 and TRPA1; HEK293: TRPV3 and ASIC3). In vitro pharmacology, cellular channel functional assays: the compound was prepared in assay buffer to the final concentration, 10 μM. The compound wells, reference agonist and background vehicle controls were prepared in DMSO at 0.3%. The reference agonist for each Ion Channel assayed was prepared in a similar manner to serve as the assay control. The reference agonist for each Ion Channel was included at Emax (the concentration where the reference agonist elicited a maximal response). The agonist assay was conducted on fluorimeter instruments where the test compound, vehicle controls, and reference agonist were added to the assay plate after a fluorescence baseline was established. The agonist assay was used to assess each compound’s ability to activate each Ion Channel assayed. For the antagonist assay, the compound was pre-incubated for five minutes at room temperature, and then challenged with the EC80 concentration of the reference agonist after establishment of a fluorescence baseline. Vehicle controls and EC80 concentration of reference agonist were added to appropriate wells. The antagonist assay was used to assess each compound’s ability to inhibit activation by the corresponding Ion Channel agonist. ASIC3 ionflux antagonist assay: all recordings were obtained from a holding potential of -60 mV. The compound addition sequence was as follows: one addition of pH5.5 buffer was added to establish the baseline response, the test concentration of compound was applied for 30 s, followed by the addition of pH5.5 of compound for 2 s. Binding assays were performed in CHO cell cultures overexpressing human CGRPR, CB2 and M2 receptors. RGM8-51 (10 μM) was tested, and reference compounds used as control agonists and antagonists are detailed in Table 2, footnote. Binding assay results are expressed as a percent of control specific binding. […] Aqueous solubility (μM) was determined by comparing the peak area of the principal peak in a calibration standard (200 μM) containing organic solvent (methanol/water, 60/40, v/v) with the peak area of the corresponding peak in a buffer sample. Partition coefficient: the total amount of compound was determined as the peak area of the principal peak in a calibration standard (100 μM) containing organic solvent (methanol/water, 60/40, v/v). The amount of compound in buffer was determined as the combined, volume-corrected, and weighted areas of the corresponding peaks in the aqueous phases of three organic-aqueous samples of different composition. An automated weighting system was used to ensure the preferred use of raw data from those samples with well quantifiable peak signals. The amount of compound in organic phase was calculated by subtraction. Subsequently, Log D was calculated as the Log10 of the amount of compound in the organic phase divided by the amount of compound in the aqueous phase. […] Permeability was measured in CACO-2 monolayers. Percentage of compounds in the receptors wells was measured using HPLC. […] In vitro metabolism was measured in human liver microsomes. […] The apparent intrinsic clearance (CLint, in μL/min/mg) was calculated from the half-life time.

rTRPM8 [4] = target: T1, rTRPM8; set-up: method as in PMID 32843690; conditions: reference antagonist value; ref [31]; read-out: rTRPM8 IC50, Ca2+ microfluorography; cited from earlier work
serum proteins = assay: Protein binding; type: in vitro ADME, human

T1 sequence (Q8R455 whole entry): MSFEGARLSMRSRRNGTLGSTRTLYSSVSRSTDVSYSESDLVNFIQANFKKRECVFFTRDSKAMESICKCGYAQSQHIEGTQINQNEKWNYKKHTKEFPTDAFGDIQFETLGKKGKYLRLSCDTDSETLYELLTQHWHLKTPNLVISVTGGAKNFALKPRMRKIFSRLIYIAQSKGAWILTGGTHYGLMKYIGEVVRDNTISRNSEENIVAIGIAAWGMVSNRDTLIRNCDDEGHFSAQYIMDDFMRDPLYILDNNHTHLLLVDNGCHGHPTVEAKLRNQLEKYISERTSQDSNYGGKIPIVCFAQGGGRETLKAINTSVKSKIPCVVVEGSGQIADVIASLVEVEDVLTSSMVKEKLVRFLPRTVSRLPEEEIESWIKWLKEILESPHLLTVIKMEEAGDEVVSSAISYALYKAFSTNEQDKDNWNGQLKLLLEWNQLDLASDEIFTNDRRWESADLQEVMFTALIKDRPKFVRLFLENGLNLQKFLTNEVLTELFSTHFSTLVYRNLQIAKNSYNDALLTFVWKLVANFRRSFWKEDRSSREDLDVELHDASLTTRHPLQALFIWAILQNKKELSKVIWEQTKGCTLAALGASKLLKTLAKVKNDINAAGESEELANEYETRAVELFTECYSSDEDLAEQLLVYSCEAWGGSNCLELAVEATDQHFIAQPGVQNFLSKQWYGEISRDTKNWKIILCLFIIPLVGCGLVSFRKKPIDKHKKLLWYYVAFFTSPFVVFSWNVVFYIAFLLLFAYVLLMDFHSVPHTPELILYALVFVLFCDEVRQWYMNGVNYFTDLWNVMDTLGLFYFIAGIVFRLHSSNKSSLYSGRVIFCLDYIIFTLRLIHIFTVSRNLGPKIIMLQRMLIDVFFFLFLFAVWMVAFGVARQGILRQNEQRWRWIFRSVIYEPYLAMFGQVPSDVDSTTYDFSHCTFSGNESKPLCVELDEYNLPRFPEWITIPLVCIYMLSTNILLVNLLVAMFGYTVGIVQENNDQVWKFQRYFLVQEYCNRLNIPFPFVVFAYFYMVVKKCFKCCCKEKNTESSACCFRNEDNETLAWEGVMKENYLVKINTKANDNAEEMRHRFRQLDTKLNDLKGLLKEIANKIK

C[C@@H]1C(=O)N(C[C@H](Cc2ccccc2)NC(=O)OCc2ccccc2)[C@]1(Cc1ccccc1)C(=O)OCc1ccccc1 [Compound 2, reference compound]
relief of oxaliplatin-induced cold hypersensitivity [1]: significant activity | IC50 (rTRPM8 [2]): 3.1 ± 1.1 µM | IC50 (rTRPM8 [3]): 0.9 ± 1 µM

CC(C)NCC(O)COc1cccc2ccccc12 (stereo not shown) [Propanolol, reference compound]
Permeability B-A (%) (CACO-2 cell monolayers): 74% | Permeability A-B (%) (CACO-2 cell monolayers; percentage of compound in the acceptor cell): 70%

Cc1cccc(COc2ccccc2C(=O)N(CCCN)Cc2cccs2)c1 [AMTB]
IC50 (rTRPM8 [4]): 7.3 ± 1.5 µM

CC(=O)CC(c1ccccc1)c1c(O)c2ccccc2oc1=O (stereo not shown) [Warfarin, reference compound]
Binding to proteins (%) (serum proteins): 99%
